Measurements from ChEMBL document CHEMBL5233288, “Ginkgo Biflavones Cause p53 Wild-Type Dependent Cell Death in a Transcription-Independent Manner of p53” (J Nat Prod, 2023).
One block for each compound: values may come before it. Calls of active or inactive are those of the source. No cut-off for these calls is given here.

How the values were obtained:
HCT-116 [1] = experiment: Cytotoxicity against human HCT-116 cells assessed as reduction in cell viability at 10 uM incubated for 72 hrs in presence of apoptosis inhibitor, Z-VAD-FMK by resazurin-based analysis; type: functional
HCT-116 [2] = experiment: Induction of cell cycle arrest in human HCT-116 cells expressing wild type p53 assessed as accumulation of cells at S phase at 20 uM incubated for 24 hrs by PI staining based flow cytometry (reference value: 0.52 to 3.83%); type: functional
HCT-116 [3] = experiment: Induction of apoptosis in human HCT-116 cells expressing wild type p53 assessed as late apoptotic cells at 20 uM incubated for 48 hrs by Annexin V-FITC/PI staining based flow cytometry (reference value: 5.37%); type: functional
HCT-116 [4] = experiment: Induction of cell cycle arrest in human HCT-116 cells expressing wild type p53 assessed as accumulation of cells at G2 phase at 10 uM incubated for 24 hrs by PI staining based flow cytometry (reference value: 30.7 to 31.5%); type: functional
HCT-116 [5] = experiment: Induction of cell cycle arrest in human HCT-116 cells expressing wild type p53 assessed as accumulation of cells at G1 phase at 10 uM incubated for 24 hrs by PI staining based flow cytometry (reference value: 62.5 to 66.7%); type: functional
HCT-116 [6] = experiment: Upregulation of p21 protein expression in human HCT-116 cells at 20 uM incubated for 24 hrs by western blot analysis; type: functional, cell-based
HCT-116 [7] = experiment: Upregulation of p53 protein expression in human HCT-116 cells expressing wild type p53 incubated for 24 hrs by western blot analysis; type: functional, cell-based; details: dose 2.5-20 µM
HCT-116 [8] = experiment: Induction of ferroptosis in human HCT-116 cells assessed as reduction in GSH content at 20 uM incubated for 24 hrs; type: functional, cell-based
HCT-116 [9] = experiment: Induction of intracellular ROS generation in human HCT-116 cells at 20 uM incubated for 24 hrs by DCFH-DA staining based fluorescence analysis; type: functional, cell-based
HCT-116 [10] = experiment: Induction of mitochondrial membrane potential depolarization in human HCT-116 cells assessed as reduction in mitochondrial membrane potential at 20 uM incubated for 24 hrs by JC-1 staining based fluorescence analysis; type: functional, cell-based
HCT-116 [11] = experiment: Cytotoxicity against human HCT-116 cells expressing wild type p53 assessed as induction of cell death at 20 uM incubated for 72 hrs by resazurin based analysis; type: functional
HCT-116 [12] = experiment: Downregulation of MDM2 protein expression in human HCT-116 cells at 10 uM incubated for 24 hrs by western blot analysis; type: functional, cell-based
[13] = target: Cellular tumor antigen p53 (Homo sapiens) (UniProt P04637); experiment: Inhibition of p53 DNA binding activity in human HCT-116 cells assessed as reduction in DNA-protein complex formation at 20 uM incubated for 24 hrs by electrophoretic mobility shift analysis; type: cell-based
Sequence of Cellular tumor antigen p53 (Homo sapiens) (P04637 whole entry, looked up): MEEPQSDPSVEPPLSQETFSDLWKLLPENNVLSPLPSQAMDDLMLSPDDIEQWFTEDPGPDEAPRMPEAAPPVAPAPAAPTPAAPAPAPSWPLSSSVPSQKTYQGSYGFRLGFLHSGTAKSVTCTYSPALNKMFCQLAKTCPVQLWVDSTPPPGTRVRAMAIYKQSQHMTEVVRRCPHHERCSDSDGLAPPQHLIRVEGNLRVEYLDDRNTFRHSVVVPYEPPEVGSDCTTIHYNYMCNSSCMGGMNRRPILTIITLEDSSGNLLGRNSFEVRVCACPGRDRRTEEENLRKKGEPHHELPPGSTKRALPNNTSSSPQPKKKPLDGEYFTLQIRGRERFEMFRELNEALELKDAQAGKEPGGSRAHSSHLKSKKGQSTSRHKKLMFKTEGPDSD

HCT-116 [14] = experiment: Induction of cell cycle arrest in human HCT-116 cells expressing wild type p53 assessed as accumulation of cells at S phase at 5 uM incubated for 24 hrs by PI staining based flow cytometry (reference value: 0.52 to 3.83%); type: functional
HCT-116 [15] = experiment: Downregulation of MDM2 protein expression in human HCT-116 cells at 10 uM incubated for 24 hrs in presence of 10 uM 5-FU by western blot analysis; type: functional, cell-based
HCT-116 [16] = experiment: Induction of apoptosis in human HCT-116 cells expressing wild type p53 assessed as late apoptotic cells at 10 uM incubated for 48 hrs by Annexin V-FITC/PI staining based flow cytometry (reference value: 5.06%); type: functional
HCT-116 [17] = experiment: Induction of apoptosis in human HCT-116 cells expressing wild type p53 assessed as viable cells at 10 uM incubated for 48 hrs by Annexin V-FITC/PI staining based flow cytometry (reference value: 82%); type: functional; details: read-out: Activity
HCT-116 [18] = experiment: Potentiation of 5-FU-induced cytotoxicity in human HCT-116 cells assessed as reduction in cell viability at 10 uM incubated for 24 hrs in presence of 10 uM 5-FU by resazurin based analysis; type: functional
HCT-116 [19] = experiment: Upregulation of p53 protein expression in human HCT-116 cells expressing wild type p53 at 20 uM by western blot analysis; type: functional, cell-based; details: time 0.5-16 hrs, TDE = time-dependent effect
HCT-116 [20] = experiment: Induction of ferroptosis in human HCT-116 cells assessed as increase in iron content at 20 uM incubated for 24 hrs; type: functional, cell-based
HCT-116 [21] = experiment: Induction of apoptosis in human HCT-116 cells expressing wild type p53 assessed as necrotic cells at 20 uM incubated for 48 hrs by Annexin V-FITC/PI staining based flow cytometry (reference value: 0.44%); type: functional
HCT-116 [22] = experiment: Induction of cell cycle arrest in human HCT-116 cells expressing wild type p53 assessed as accumulation of cells at S phase at 10 uM incubated for 24 hrs by PI staining based flow cytometry (reference value: 0.52 to 3.83%); type: functional
SW-620 = experiment: Cytotoxicity against human SW620 cells expressing p53 mutant assessed as induction of cell death at 20 uM incubated for 72 hrs by resazurin based analysis; type: functional
HCT-116 [23] = experiment: Increase in mitochondrial complex III activity in human HCT-116 cells at 20 uM incubated for 24 hrs; type: functional, cell-based
HCT-116 [24] = experiment: Induction of cell cycle arrest in human HCT-116 cells expressing wild type p53 assessed as accumulation of cells at G2 phase at 5 uM incubated for 24 hrs by PI staining based flow cytometry (reference value: 30.7 to 31.5%); type: functional
HCT-116 [25] = experiment: Induction of cell cycle arrest in human HCT-116 cells expressing wild type p53 assessed as accumulation of cells at G2 phase at 20 uM incubated for 24 hrs by PI staining based flow cytometry (reference value: 30.7 to 31.5%); type: functional
HCT-116 [26] = experiment: Induction of apoptosis in human HCT-116 cells expressing wild type p53 assessed as viable cells at 20 uM incubated for 48 hrs by Annexin V-FITC/PI staining based flow cytometry (reference value: 82.2%); type: functional; details: read-out: Activity
HCT-116 [27] = experiment: Upregulation of BAX protein expression in human HCT-116 cells at 20 uM incubated for 24 hrs by western blot analysis; type: functional, cell-based
HCT-116 [28] = experiment: Induction of apoptosis in human HCT-116 cells expressing wild type p53 assessed as necrotic cells at 10 uM incubated for 48 hrs by Annexin V-FITC/PI staining based flow cytometry (reference value: 0.44%); type: functional
HCT-116 [29] = experiment: Upregulation of p53 protein expression in human HCT-116 cells at 10 uM incubated for 24 hrs in presence of 10 uM 5-FU by western blot analysis; type: functional, cell-based
HCT-116 [30] = experiment: Cytotoxicity against human HCT-116 cells assessed as reduction in cell viability at 10 uM incubated for 72 hrs in presence of ferroptosis inhibitor, ferrostatin-1 by resazurin-based analysis; type: functional
RKO = experiment: Cytotoxicity against human RKO cells expressing wild type p53 assessed as induction of cell death at 20 uM incubated for 72 hrs by resazurin based analysis; type: functional
HCT-116 [31] = experiment: Upregulation of phosphorylated p53 expression in human HCT-116 cells expressing wild type p53 at 20 uM incubated for 24 hrs by western blot analysis; type: functional, cell-based
HCT-116 [32] = experiment: Upregulation of p53 protein expression in human HCT-116 cells expressing wild type p53 at 20 uM incubated for 24 hrs by western blot analysis; type: functional, cell-based

- inhibition [13]: Active
SMILES: COc1ccc(-c2cc(=O)c3c(O)cc(O)cc3o2)cc1-c1c(O)cc(O)c2c(=O)cc(-c3ccc(O)cc3)oc12 [BILOBETIN]
- Activity (HCT-116 [1]): inactive
- Activity (HCT-116 [2]): 7.24%
- Activity (HCT-116 [3]): 6.94%
- Activity (HCT-116 [4]): 33.4%
- Activity (HCT-116 [5]): 59.9%
- Activity (HCT-116 [6]): inactive
- Activity (HCT-116 [7]): Dose-Dependent Effect
- Activity (HCT-116 [8]): Active
- Activity (HCT-116 [9]): Active
- Activity (HCT-116 [10]): Active
- Activity (HCT-116 [11]): Active
- inhibition (HCT-116 [12]): Active
- Activity (HCT-116 [14]): 1.81%
- inhibition (HCT-116 [15]): Active
- Activity (HCT-116 [16]): 3.58%
- viability at 10 µM (HCT-116 [17]): 67.9%
- Activity (HCT-116 [18]): Active
- Activity (HCT-116 [19]): Tde
- Activity (HCT-116 [20]): Active
- Activity (HCT-116 [21]): 0.49%
- Activity (HCT-116 [22]): 4.88%
- Activity (SW-620): inactive
- Activity (HCT-116 [23]): Active
- Activity (HCT-116 [24]): 32.7%
- Activity (HCT-116 [25]): 41%
- viability at 20 µM (HCT-116 [26]): 52.6%
- Activity (HCT-116 [27]): inactive
- Activity (HCT-116 [28]): 0.46%
- Activity (HCT-116 [29]): Active
- Activity (HCT-116 [30]): inactive
- Activity (RKO): Active
- Activity (HCT-116 [31]): Active
- Activity (HCT-116 [32]): Active

- inhibition [13]: Active
SMILES: COc1cc(O)c2c(=O)cc(-c3ccc(OC)c(-c4c(O)cc(O)c5c(=O)cc(-c6ccc(O)cc6)oc45)c3)oc2c1 [GINKGETIN]
- Activity (HCT-116 [1]): inactive
- Activity (HCT-116 [2]): 1.47%
- Activity (HCT-116 [3]): 10.5%
- Activity (HCT-116 [4]): 43.1%
- Activity (HCT-116 [5]): 51.2%
- Activity (HCT-116 [6]): inactive
- Activity (HCT-116 [7]): Dose-Dependent Effect
- Activity (HCT-116 [8]): Active
- Activity (HCT-116 [9]): Active
- Activity (HCT-116 [10]): Active
- Activity (HCT-116 [11]): Active
- inhibition (HCT-116 [12]): Active
- Activity (HCT-116 [14]): 1.2%
- inhibition (HCT-116 [15]): Active
- Activity (HCT-116 [16]): 5.69%
- viability at 10 µM (HCT-116 [17]): 67.6%
- Activity (HCT-116 [18]): Active
- Activity (HCT-116 [19]): Tde
- Activity (HCT-116 [20]): Active
- Activity (HCT-116 [21]): 0.54%
- Activity (HCT-116 [22]): 3.37%
- Activity (SW-620): inactive
- Activity (HCT-116 [23]): Active
- Activity (HCT-116 [24]): 39.2%
- Activity (HCT-116 [25]): 52.1%
- viability at 20 µM (HCT-116 [26]): 55.4%
- Activity (HCT-116 [27]): inactive
- Activity (HCT-116 [28]): 0.99%
- Activity (HCT-116 [29]): Active
- Activity (HCT-116 [30]): inactive
- Activity (RKO): Active
- Activity (HCT-116 [31]): Active
- Activity (HCT-116 [32]): Active

- inhibition [13]: Active
SMILES: COc1ccc(-c2cc(=O)c3c(O)cc(O)c(-c4cc(-c5cc(=O)c6c(O)cc(O)cc6o5)ccc4OC)c3o2)cc1 [ISOGINKGETIN]
- Activity (HCT-116 [1]): inactive
- Activity (HCT-116 [2]): 3.82%
- Activity (HCT-116 [3]): 9.54%
- Activity (HCT-116 [4]): 44.5%
- Activity (HCT-116 [5]): 52.6%
- Activity (HCT-116 [6]): inactive
- Activity (HCT-116 [7]): Dose-Dependent Effect
- Activity (HCT-116 [8]): Active
- Activity (HCT-116 [9]): Active
- Activity (HCT-116 [10]): Active
- Activity (HCT-116 [11]): Active
- inhibition (HCT-116 [12]): Active
- Activity (HCT-116 [14]): 3.37%
- inhibition (HCT-116 [15]): Active
- Activity (HCT-116 [16]): 2.58%
- viability at 10 µM (HCT-116 [17]): 70%
- Activity (HCT-116 [18]): Active
- Activity (HCT-116 [19]): Tde
- Activity (HCT-116 [20]): Active
- Activity (HCT-116 [21]): 0.79%
- Activity (HCT-116 [22]): 1.38%
- Activity (SW-620): inactive
- Activity (HCT-116 [23]): Active
- Activity (HCT-116 [24]): 36.7%
- Activity (HCT-116 [25]): 46.6%
- viability at 20 µM (HCT-116 [26]): 49.1%
- Activity (HCT-116 [27]): inactive
- Activity (HCT-116 [28]): 0.92%
- Activity (HCT-116 [29]): Active
- Activity (HCT-116 [30]): inactive
- Activity (RKO): Active
- Activity (HCT-116 [31]): Active
- Activity (HCT-116 [32]): Active
